According to US20020142362A1, “Colorimetric assay system using thiopeptolide substrate for detection of membrane-type matrix metalloproteinase” (priority 2000, published 2002):
Numbered stars: 1 amine (or outer) side, 2 acyl side, 3 side chain; on linkers, the order of the positions; unused ones are H or OH. Bridge positions count the residues as written; N and C are the ends. Square brackets hold non-standard residues; d marks the D form. Peptide text beside a SMILES is read from it. I, II: the chains in the order shown. Actinocin(9to1) = Cc1c2oc3c(C)ccc(C(=O)[*:1])c3nc-2c(C(=O)[*:2])c(N)c1=O; NMeV = CN[C@H](C(=O)O)C(C)C; Sar = CNCC(=O)O

Experiments:
MT-MMP [1] = experiment: Thiopeptolide assay on cultured trabecular meshwork cells (digitonin-permeabilized); assay type: cell-based, Rhesus monkey; details: for thiopeptolide assay result versus control CACM: control cells (no Con A), 1 hour preincubation + 24 hours
Method: (§1) The assay of the present invention may be made by first preparing the selected biological sample and assay buffer. To prepare the biological sample, the biological sample such as but not limited to cultured cells were placed in microtiter plates and incubated at approximately 37° C. for up to approximately 96 hours with serum-free, defined medium. A portion of the serum-free, defined medium contained test compounds, while another portion was maintained free of test compounds to serve as controls. In some cases, the biological sample was then processed as a permeabilized “ghost” as described in Example 1 below. The biological sample was then rinsed several times with cold isotonic balanced saline or Tris(hydroxymethyl)aminomethane (TRIS) buffer at pH 7.2 - 7.5. The saline or buffer was then replaced by filter-sterilized, isotonic assay buffer (295 mOsm) consisting of approximately 50 mmol/L N-[2-hydroxyethyl]piperazine-N′-[2-ethane sulfonic acid] (HEPES), approximately 106 mmol/L sodium chloride, approximately 3.5 mmol/L potassium chloride, approximately 5 mmol/L calcium chloride, and approximately 0.02% (v/v) polyoxyethylene 23 lauryl ether (Brij 35) or a similar detergent, final pH approximately 7.5, at approximately room temperature. The Brij 35 was added fresh, and the final mixture was protected from excessive light exposure. The volume of assay buffer for each biological sample was approximately one-half the final assay mixture volume, the other half being made up of the thiopeptolide substrate/thiol reagent solution. For example, when 96-well microtiter plates were employed, the assay mixture volume was approximately 200 microliters.
Next the thiopeptolide substrate/thiol reagent solution was prepared. Preferably, the synthetic thiopeptolide substrate acetyl-prolyl-leucyl-glycyl-[2-mercapto-4-methyl-pentanoyl]-leucyl-glycyl-ethyl ester (Bachem Bioscience, Inc., King of Prussia, Pa.) is used in the solution due to its ready availability. The synthetic thiopeptolide was stored as a 40X, 20 mmol/L stock in DMSO, sealed from light and air, and stored with desiccant at approximately −70° C.. The thiol reagent, 4,4-dithiodipyridine,5,5′-dithio bis(2-nitro-benzoic acid) (DTNB) or the like, but preferably DTNB, was prepared as a 100X, 50 mmol/L stock in DMSO, and stored protected from light with desiccant at approximately room temperature. The combined thiopeptolide and DTNB were both diluted to appropriately 1 mmol/L in assay buffer without Brij 35 to yield a solution that was 2X for both chemicals after thorough mixing. The assay reaction was started when this 2X solution was added in a 1:1 ratio, with thorough mixing, to the assay buffer in which the cells had been equilibrated. The final concentration of both thiopeptolide and DTNB were 0.5 mmol/L.
The assay reaction was then allowed to progress to a suitable endpoint beyond which no further color reaction proceeded, possibly due to product inhibition. This endpoint is usually reached after approximately two hours. During the two hours the samples were gently agitated in an approximately 37° C. humidified incubator. Once the endpoint was reached the microtiter plates were placed into a plate reader and optical density (OD) was measured at 410 nm. Blank values, the OD readings for samples without cells, used to assess non-enzymatic, non-specific hydrolysis of substrate, were then subtracted from all sample OD measurements. The OD measurements taken at 410 nm may be used as a measure of the amount of MT-MMP present on the samples. The effects of experimental conditions on the expression of MT-MMP may then be compared with that of the control samples.
Details of the signal transduction process initiated by Con A culminating in proGelatinase A activation by MT-MMP remained to be elucidated. […]

MT1-MMP [2] = details: HT-1080, in vitro incubation; cited from earlier work
proGelatinase A [3] = details: cited from earlier work; for activation of Gelatinase A from the proenzyme form (zymography): HT-1080, in vitro incubation
MT1-MMP [4] = experiment: Thiopeptolide assay on HT-1080 cells; assay type: cell-based, Human
Excerpt: The activation of proGelatinase A was shown in the noted Lohi and Stanton work to be inhibitable by tissue inhibitor of [matrix] metalloproteinases-2 (TIMP-2), and by a synthetic hydroxamate inhibitor of MMP's, but not by metalloproteinases-1 (TIMP-1). As additional evidence that the subject assay detects MT1-MMP in human and non-human primate TM cells, the zymographic results of the Lohi and Stanton work were reproduced using the subject assay, using the same methodology as described herein for TM cells, with […] and […].

proGelatinase A [5] = experiment: Zymography of conditioned medium from cultured TM cells; assay type: cell-based
MT-MMP [6] = experiment: Thiopeptolide assay on excised trabecular meshwork from human anterior segment organ culture; assay type: cell-based
Method: as §1
Next the thiopeptolide substrate/thiol reagent solution was prepared. Preferably, the synthetic thiopeptolide substrate acetyl-prolyl-leucyl-glycyl-[2-mercapto-4-methyl-pentanoyl]-leucyl-glycyl-ethyl ester (Bachem Bioscience, Inc., King of Prussia, Pa.) is used in the solution due to its ready availability. The synthetic thiopeptolide was stored as a 40X, 20 mmol/L stock in DMSO, sealed from light and air, and stored with desiccant at approximately −70° C.. […]
The assay reaction was then allowed to progress to a suitable endpoint beyond which no further color reaction proceeded, possibly due to product inhibition. […] Once the endpoint was reached the microtiter plates were placed into a plate reader and optical density (OD) was measured at 410 nm. Blank values, the OD readings for samples without cells, used to assess non-enzymatic, non-specific hydrolysis of substrate, were then subtracted from all sample OD measurements. […]

MT-MMP [7] = experiment: Thiopeptolide assay on cultured TM cells with protease inhibitors; assay type: cell-based
Excerpt: Evidence has been presented by Mazzieri, et al., EMBO Journal 16: 2319-2332 (1997) that the urokinase-plasmin system may be in part responsible for activation of proGelatinase A in some cell systems. It was found in studying the subject thiopeptolide assay that a lesser fraction of the subject thiopeptolide assay activity could be inhibited by serine protease inhibitors, which are ineffective with MMP's. However, when these latter inhibitors were employed with TM cells stimulated by Con A, the percentage increase in thiopeptolide assay activity, compared to control cultures, was in fact augmented due to the Con A treatment.

[8] = Con A-treated cells (10 ug/ml), inhibitor 1 hour preincubation, then Con A plus inhibitor 24 hours, Act D 500 ng/ml, CHX 20 ug/ml

Row | Compound | MT-MMP activity in thiopeptolide assay versus control CACM (MT-MMP [1]; [8]) | thiopeptolide assay result versus control CACM (MT-MMP [1]; Act D 500 ng/ml, CHX 20 ug/ml) | expression of MT1-MMP (Western immunoblot) (MT1-MMP [2]) | activation of Gelatinase A from the proenzyme form (zymography) (proGelatinase A [3]) | activity in thiopeptolide assay following treatment (MT1-MMP [4]) | other results
1 | Cc1c2oc3c(C)ccc(C(=O)N[C@@H]4C(=O)N[C@H](C(C)C)C(=O)N5CCC[C@H]5C(=O)N(C)CC(=O)N(C)[C@@H](C(C)C)C(=O)O[C@@H]4C)c3nc-2c(C(=O)N[C@@H]2C(=O)N[C@H](C(C)C)C(=O)N3CCC[C@H]3C(=O)N(C)CC(=O)N(C)[C@@H](C(C)C)C(=O)O[C@@H]2C)c(N)c1=O [Act D, actinomycin D] (I: T[dV]P[Sar][NMeV] / II: T[dV]P[Sar][NMeV]; ester I:1-I:C, II:1-II:C; linker I:N-II:N via Actinocin(9to1)) | slightly, but discernibly, higher than control | not significantly different from control CACM alone |  |  |  | MT-MMP activity in thiopeptolide assay versus control CACM (MT-MMP [1]; Con A for 6 hrs, then Con A plus Act D for 18 hours): slightly, but discernibly, higher than control
2 | C[C@@H]1C[C@@H]([C@H](O)CC2CC(=O)NC(=O)C2)C(=O)[C@@H](C)C1 [CHX, cycloheximide] | not significantly different from control CACM alone | not significantly different from control CACM alone |  |  |  | 
3 | CCCCCCCCCCCCCC(=O)O[C@@H]1[C@@H](C)[C@@]2(O)[C@@H](C=C(CO)C[C@]3(O)C(=O)C(C)=C[C@@H]23)[C@@H]2C(C)(C)[C@]12OC(C)=O [PMA, phorbol 12-myristate 13-acetate] |  |  | increase expression | activate | Increased activity | 
4 | Concanavalin A [Con A] |  |  | increase expression | activate | Increased activity | activation of proGelatinase A (zymography) (proGelatinase A [5]): robust activation; MT-MMP expression over control levels (OD 410 nm, thiopeptolide assay) (MT-MMP [1]; Con A 10 ug/ml in CACM, 24 hours, vs control CACM): more than 200%; OD readings over control (MT-MMP [6]; 100 ug/ml Con A): 200%; OD readings over control (MT-MMP [6]; 30 - 80 ug/ml Con A): approximately 100%; thiopeptolide assay result versus control medium (MT-MMP [6]; Con A below 30 ug/ml): indistinguishable from simply incubating anterior segment quadrants in control medium; threshold Con A concentration for MT-MMP expression in intact TM (MT-MMP [6]; human anterior segment quadrants, 24 + 18 hour incubation): 30 µg/mL
5 | TIMP-1: metalloproteinases-1 (TIMP-1), tissue inhibitor of metalloproteinases |  |  |  |  |  | inhibition of activity increases in thiopeptolide assay (MT-MMP [7]): not; inhibition of activation of proGelatinase A (proGelatinase A [3]; HT-1080, Lohi and Stanton work): not
